# Measurements taken from PubChem BioAssay (NCI).
#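 Cells were grown in 96-well plates and exposed to each compound for 48 hours at five concentrations; endpoints were interpolated linearly between bracketing concentrations, or set to the highest concentration if not reached. GI50: concentration for 50% inhibition of growth. TGI: concentration producing complete growth inhibition.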
# Tests used:
# Assay in all cases: DTP human tumour cell line panel, 48 h
# A549 NSCLC = test system: A549 NSCLC
# SK-MEL-5 melanoma = test system: SK-MEL-5 melanoma
# SK-OV-3 ovarian = test system: SK-OV-3 ovarian
# LOX IMVI melanoma = test system: LOX IMVI melanoma
# RXF 393 renal = test system: RXF 393 renal
# HCT-15 colon = test system: HCT-15 colon
# OVCAR-5 ovarian = test system: OVCAR-5 ovarian
# DMS 273 small cell lung = test system: DMS 273 small cell lung
# HOP-62 NSCLC = test system: HOP-62 NSCLC
# U251 CNS = test system: U251 CNS
# SR leukemia = test system: SR leukemia
Structure (SMILES),TGI (A549 NSCLC) [µM],TGI (SK-MEL-5 melanoma) [µM],TGI (SK-OV-3 ovarian) [µM],TGI (LOX IMVI melanoma) [µM],TGI (RXF 393 renal) [µM],TGI (HCT-15 colon) [µM],TGI (OVCAR-5 ovarian) [µM],TGI (DMS 273 small cell lung) [µM],TGI (HOP-62 NSCLC) [µM],TGI (U251 CNS) [µM],GI50 (A549 NSCLC) [µM],GI50 (SK-MEL-5 melanoma) [µM],GI50 (SK-OV-3 ovarian) [µM],GI50 (SR leukemia) [µM],TGI (SR leukemia) [µM],GI50 (RXF 393 renal) [µM],GI50 (HCT-15 colon) [µM],GI50 (HOP-62 NSCLC) [µM],GI50 (U251 CNS) [µM]
O=C(NC(Cc1ccc(I)cc1)C(=O)O)c1ccc(Br)cc1 (centres undefined),> 100,> 100,> 100,> 100,> 100,> 100,> 100,> 100,> 100,> 100,–,–,–,–,–,–,–,–,–
COc1ccc(/C(Cl)=C(\C=O)c2ccc(F)cc2)cc1OC,–,37.7,77.2,30.7,–,83.3,–,97.3,52.6,33.6,–,–,–,–,–,–,–,–,–
Cc1[nH]c(=O)[nH]c(=O)c1/C=C/C(=O)O,> 1000,> 1000,> 1000,> 1000,> 1000,> 1000,> 1000,> 1000,> 1000,> 1000,–,–,–,–,–,–,–,–,–
C[C@]12CCc3nc(Nc4ccccc4)sc3C1=CC[C@@H]1[C@@H]2CC[C@]2(C)/C(=N/NC(N)=S)CC[C@@H]12,> 100,> 100,> 100,–,5.09,6.25,–,–,> 100,> 100,8.5,5.9,82.7,1.71,> 100,2.18,1.64,17.6,3.64
COc1ccc2nc3ccccc3c(NCCCCCCN(CCCl)CCCl)c2c1,6.06,1.64,2.74,0.0394,–,–,1.9,0.206,2.42,1.57,–,–,–,–,0.346,–,–,–,–
COc1cc(Nc2c3ccccc3nc3ccccc23)ccc1NS(C)(=O)=O,12.3,28.6,30.8,> 100,–,–,23,–,24.3,25.2,–,–,–,–,15.2,–,–,–,–
Cc1ccc(S(=O)(=O)OCC(=O)O)cc1,> 100,> 100,–,> 100,> 100,> 100,> 100,–,> 100,> 100,–,–,–,–,> 100,–,–,–,–
COC(=O)C1=C(C(=O)OC)SC2(S1)C1=C(CCCC1)SC(C(=O)OC)=C2C(=O)OC,31.1,23.4,28.1,5.3,6.91,18.1,25.4,–,17.8,19.4,–,–,–,–,–,–,–,–,–
Nc1ccc2[nH]c3c(-c4ccccc4)nccc3c2c1,> 100,> 31.6,> 100,> 100,> 96.5,> 100,> 100,> 100,> 100,> 100,–,–,–,–,–,–,–,–,–
N=C(N)c1ccc(N=Nc2c(O)ccc3c2[nH]c2ccccc23)cc1,–,> 100,79.9,–,> 100,> 100,83.1,–,> 100,–,–,–,–,–,–,–,–,–,–
